{
  "source": "patent US20250025439A1",
  "about": "“DERIVATIVES OF NIFUROXAZIDE FOR USE IN THE TREATMENT OF MITOCHONDRIAL DISORDERS AND NEURODEGENERATIVE DISEASES” (priority 2021, published 2025)",
  "assay_type_in_all_cases": "cell-based, human",
  "key": {"patient fibroblasts": {"test_system": "patient fibroblasts", "assay": "Electron microscopy of mitochondrial morphology in fibroblasts", "settings": "72 h after treatment", "experimental": "Cells were seeded on 24 wells/plate, fixed with 1.6% glutaraldehyde in 0.1 M cacodylate buffer (pH 7.4) for 2 hours, rinsed and postfixed in 1% osmium tetroxide and 1% potassium ferrocyanide in 0.1 M cacodylate buffer before to processed for ultrastructure as previously described (Bannwarth et al., Brain, 2014, 137, 2329-2345). The protocol for contrasting sections was slightly modified, using a 5% Lanthanide salt solution (a mixture of Gadolinium acetate and Samarium acetate) for 7 minutes instead of uranium acetate. The cells were examined under a JEOL 1400 transmission electron microscope. The ultrastructure of mitochondria was classified in three categories. Normal: the mitochondria have numerous, parallel and well organized cristae. Intermediary: the mitochondria have less cristae, they show few round or swollen cristae or have a mild disorganisation. Abnormal: the mitochondria have swollen, disorganized or no cristae. More than 100 mitochondria were classified per condition. Nifuroxazide (46494-100MG Sigma) was resuspended in DMSO at 50 mM and stocked at −20° C. For each treatment, the Nifuroxazide was diluted in complete medium (Dulbecco's Modified Eagle Medium supplemented with 10% FBS, penicillin (100 U/mL) and streptomycin (0.1 mg/mL)) at the desired concentration. […] 72 h hours after treatment, the cells were analysed."}, "patient motor neurons": {"test_system": "patient motor neurons", "assay": "Electron microscopy of mitochondrial morphology in iPSC-derived motor neurons", "settings": "NFX 0.5 μM, 72 h", "experimental": "Cells were seeded on 24 wells/plate, fixed with 1.6% glutaraldehyde in 0.1 M cacodylate buffer (pH 7.4) for 2 hours, rinsed and postfixed in 1% osmium tetroxide and 1% potassium ferrocyanide in 0.1 M cacodylate buffer before to processed for ultrastructure as previously described (Bannwarth et al., Brain, 2014, 137, 2329-2345). The protocol for contrasting sections was slightly modified, using a 5% Lanthanide salt solution (a mixture of Gadolinium acetate and Samarium acetate) for 7 minutes instead of uranium acetate. The cells were examined under a JEOL 1400 transmission electron microscope. The ultrastructure of mitochondria was classified in three categories. Normal: the mitochondria have numerous, parallel and well organized cristae. Intermediary: the mitochondria have less cristae, they show few round or swollen cristae or have a mild disorganisation. Abnormal: the mitochondria have swollen, disorganized or no cristae. More than 100 mitochondria were classified per condition. iPSC clones were generated from human fibroblasts as previously described (Genin et al., Acta Neuropathol., 2019, 138, 123-145). Motor neurons were differentiated from iPSC using previously described and validated protocols with some modifications. Briefly, iPSC clones were detached by Accutase treatment to form small clusters. […]"}, "[1]": {"test_system": "fibroblasts of patients carrying loss of function mutations in MIC13/QIL1", "assay": "Mitochondrial network analysis in fibroblasts with primary MICOS disassembly", "settings": "P3 and P4 fibroblasts, NFX 5 μM, 72 h", "experimental": "Cells were incubated with MitoTracker red (Invitrogen) as previously described (Genin et al., EMBO Mol. Med., 2016, 8, 58-72). Fibroblasts were plated on a glass slide in a 60 mm dish. For the mitochondrial staining, the fibroblasts were incubated with MitoTracker Red (Invitrogen) (100 nM) during 15 minutes at 37° C. Then the medium was replaced by fresh medium for two hours at 37° C. The cells were fixed using Paraformaldehyde (Electron Microscopy Science) (4%) diluted in medium, 20 minutes at 37° C. The cells were then washed with PBS and mounted with Prolong Gold Antifade Reagent (Molecular Probes). The slides were analysed using a confocal microscope (Zeiss LSM 880). […] The images were deconvoluted with Huygens Essential Software™ (Scientific Volume Imaging) using a theoretically calculated point spread function (PSF) for each of the dyes. All selected images were iteratively deconvolved with maximum iterations scored 40 and a quality threshold at 0.05. The deconvolved images were used for quantitative mitochondrial network analysis with Huygens Essentiel Software™ with the following standardised set of parameters: threshold=15% and seed=10% for each cell types and garbage=10. The quantitative data were further analysed in Microsoft Excel and GraphPad Prism 8 (GraphPad Software). Mitochondrial network length was quantified for 30 randomly-selected individual cells. […]"}},
  "data": [
    {"smiles": "O=C(N/N=C/c1ccc([N+](=O)[O-])o1)c1ccc(O)cc1", "note": "[NFX, (E)-4-hydroxy-N′-((5-nitrofuran-2-yl)methylene)benzohydrazide]", "values": [
      {"measurement": "mitochondrial morphology and cristae shape (EM)", "setting": "patient fibroblasts", "result": "improved"},
      {"measurement": "mitochondrial morphology and cristae shape (EM)", "setting": "patient motor neurons", "result": "improved"},
      {"measurement": "length of the mitochondrial network", "setting": "[1]", "result": "significant increase"}
    ]}
  ]
}
